Measurements as given in patent US20110082203A1, “PROCESS TO DIAGNOSE OR TREAT BRAIN INJURY” (priority 2008, published 2011).

Experiments:
[1] = Body weight loss after controlled cortical impact (CCI) TBI; format: in vivo, rat; details: 5 mg/kg i.p. five minutes prior to TBI
Procedure: (§1) In vivo model of TBI injury model: A controlled cortical impact (CCI) device is used to model TBI on rats as previously described (Pike et al, 1998). Adult male (280-300 g) Sprague-Dawley rats (Harlan: Indianapolis, Ind.) are anesthetized with 4% isoflurane in a carrier gas of 1:1 O2/N2O (4 min.) and maintained in 2.5% isoflurane in the same carrier gas. Core body temperature is monitored continuously by a rectal thermistor probe and maintained at 37±1° C. by placing an adjustable temperature controlled heating pad beneath the rats. Animals are mounted in a stereotactic frame in a prone position and secured by ear and incisor bars. Following a midline cranial incision and reflection of the soft tissues, a unilateral (ipsilateral to site of impact) craniotomy (7 mm diameter) is performed adjacent to the central suture, midway between bregma and lambda. The dura mater is kept intact over the cortex. Brain trauma is produced by impacting the right (ipsilateral) cortex with a 5 mm diameter aluminum impactor tip (housed in a pneumatic cylinder) at a velocity of 3.5 m/s with a 1.6 mm compression and 150 ms dwell time.
Subjects are administered CCI essentially as described in Example 2 and CSF is prepared as described in Example 4. […] The vehicle-treatment group receives an equal volume i.p. injection of isotonic saline. […]

[2] = system: Fluoro-Jade positive neurons; experiment: Fluoro-Jade staining of degenerating neurons following CCI, counted by optical fractionator; format: in vivo, rat
Procedure: Fluoro-Jade is used to determine whether the presence of dicyclomine affects cell death following CCI. Experimental procedures are performed as described by Cox, C D, et al. 2008. Briefly, at 24 hours (±1 hr) following the perfusion, brains are rinsed in 0.1M PB (5 minutes×2), cryoprotected in 10% and 30% solutions of sucrose in 0.1M PB for 1 hour and 48 hours, respectively, and stored in the 30% sucrose/PB solution at −80° C. The brains are blocked and sectioned caudorostrally in 45 μm increments from Bregma—1.9 mm to Bregma—4.15 mm using a sliding microtome (American Optical Corp., model 860). The tissue sections are then mounted onto slides using distilled water and allowed to dry. For the Fluoro-Jade staining procedure (Schmued et al., 1997), the sections are rehydrated using successive 5 minute rinses in 100%, 75%, 50%, and 25% ethanol followed by 3 minutes in dH2O, placed in 0.06% KMNO4 for 15 minutes followed by 2 minutes in dH2O, and then stained in 0.0006% Fluoro-Jade B solution in 0.1% acetic acid for 30 minutes. The slides are air-dried overnight, immersed in xylene, and coverslipped with DPX.
The total number of Fluoro-Jade stained cells within the CA2/CA3 region of the dorsal hippocampus for each subject is estimated using the optical fractionator technique (West et al., 1991) with a computer-based system (Stereologer version 1.3, Systems Planning and Analysis, Inc., Alexandria, Va.). The border of the dorsal CA2/3 pyramidal cell layer within each section was outlined using a 2× objective, and the cells are then manually counted at the 40× magnification. For the cortical cell counts, a site of highly localized Fluoro-Jade positivity observed in the cortex adjacent to the site of impact serves as the ROI: the region was outlined at the 2× magnification and cells were quantified at 40× as with the hippocampal region. A numerical estimate of the total number of cells in each region of interest for each subject is calculated by the software using the equation:
Nobj=(N)(1/SSF)(1/ASF)(1/TSF)
Where N represents the sum of all objects counted for the subject, SSF the section sampling fraction, ASF the area sampling fraction, and TSF the thickness sampling fraction.

[3] = system: α-II spectrin breakdown products (SBDP); details: 5 mg/kg i.p. five minutes prior to TBI
Procedure: as §1
Tissue and Sample Preparation: At the appropriate time points (2, 6, 24 hours and 2, 3, 5 days) after injury, animals are anesthetized and immediately sacrificed by decapitation. Brains are quickly removed, rinsed with ice cold PBS and halved. […]

Question: Which “% Body Weight Loss” value ([1]; mean +/- spread, * p<0.01 vs saline) does the source give for `CCN(CC)CCOC(=O)C1(C2CCCCC2)CCCCC1` [Dicyclomine, dicyclomine] here?
Answer: Its value is “*7.8 +/− 2.08%”.

Question: And the “Percent body weight loss compared to the saline-treated group” value ([1]; p<0.01)?
Answer: Its value is “significantly reduced”.

Question: What about the “Mean number of Fluoro-Jade positive neurons, hippocampal ROI” value ([2]; CA2/CA3 dorsal hippocampus, 24 hours post-TBI, 5 mg/kg i.p., vehicle 2982) of the same compound?
Answer: Its value is 2640.

Question: And the “Mean number of Fluoro-Jade positive neurons, cortical ROI” value ([2]; cortex adjacent to impact site, 24 hours post-TBI, 5 mg/kg i.p., vehicle 84392)?
Answer: The value was 84452.

Question: And the “Effect on neuronal cell viability” value ([2]; following TBI)?
Answer: Its value is “no effect”.

Question: And the “Difference in Fluoro-Jade positive neurons between treatment groups (T-test)” value ([2]; hippocampal and cortical ROIs, dicyclomine vs vehicle)?
Answer: Its value is “no significant difference”.

Question: What about the “Production of SBDPs in CSF following TBI” value [3] of the same compound?
Answer: Its value is “inhibits production of SBDPs”.
